Assay results reported in US20040132666A1, “Administration of free radical scavengers to prevent or treat ischemia-reperfusion injuries” (Oregon Health & Science University, priority 2002, published 2004).

Experiments:
[1] = system: middle cerebral artery occlusion; assay: Temporary (60 min) middle cerebral artery occlusion and 24 h reperfusion, total infarction volume by TTC staining (Example 2); type: in vivo, rat; settings: for infarction volume: 60 min occlusion, 24 h reperfusion, mean ± SD
brain glutathione levels = settings: 10 g/m^2 intraperitoneally twice daily for 3 days; cited from earlier work
[2] = system: middle cerebral artery occlusion (MCAO); assay: 60 minute transient MCAO in rats, infarcted area on TTC stained brain slices (Example 1); type: in vivo, rat
Protocol: Twenty female Long Evans rats underwent 60 minute transient MCAO. The rats were anesthetized, intubated and mechanically ventilated using 2% Isoflurane, available from Abbott Laboratories, North Chicago, Ill., and oxygen mixture. The left common carotid artery (CCA) and the bifurcation were exposed via midline incision. The branches of the left external carotid artery (ECA) were coagulated, and the ECA stump was mobilized inferiorly, the left pterygopalatine artery was ligated. A blunt tipped 3 cm long segment of a 3-0 monofilament nylon suture, available from Dermalone, United States Surgical, Norwalk, Conn., was introduced into the left internal carotid artery via the left ECA stump, and advanced 2.0-2.2 cm distance from the bifurcation. Then the proximal CCA was ligated temporarily. After the defined occlusion time the animal was re-anesthetized using a mask. The ligation of the CCA was released, and the suture was pulled back and removed allowing reperfusion of the occluded segment. […] The animals were sacrificed 24 h later with intracardiac injection of Pentobarbital. […] The pictures were analyzed using the Scion Image for Windows software (based on NIH Image Software for Macintosh). The non-stained area was outlined, and the area was calculated, as a percentage of the stroked hemisphere. Data were analyzed and graphed using Microsoft Excel Software. […]

[3] = Serum NAC concentration in rats 5 min post infusion
[4] = rat, in vivo, iv, 1000 mg/kg
[5] = system: ischemia-reperfusion injuries; assay: Single high dose versus multiple low doses of NAC against ischemia-reperfusion injuries; settings: single high dose (400-1000 mg/kg) versus multiple low doses

CCCCS(=N)(=O)CCC(N)C(=O)O [BSO, L-buthionine-[S,R]-sulfoxamine]
infarction volume in comparison to other groups ([1]; 3 days of BSO pretreatment): did not result in higher infarction volume
reduction of brain glutathione levels (brain glutathione levels): at least 50%

CC(=O)N[C@@H](CS)C(=O)O [NAC, N-acetylcysteine]
infarction versus control group ([2]; 400 mg/kg i.v. 30 min before occlusion, slices 10 and 12 mm from frontal pole, significant only in last slice): the infarction was smaller
infarcted area smaller than in control group (mean) ([2]; 400 mg/kg i.v. over 15 min starting 30 min before occlusion, slices 6 and 8 mm from frontal pole, 24 h after 60 min MCAO): 38%
serum NAC concentration ([3]; 400 mg/kg): about 1.5 mM
serum NAC concentration ([3]; 1000 mg/kg): ~10 mM
serum NAC concentration ([3]; about 140 mg/kg): 0.1 to 0.3 mM
toxicity [4]: No toxicity was observed
hematocrit after infusion (from 50%) ([1]; 2500 μl volume intravenous injection in 5 minutes, same for saline): 30%
infarction volume ([1]; Series A: 400 mg/kg i.v. -60 min to MCAO): 143.40 ± 72 mm3
average reduction of total calculated infarction volume versus saline treated group ([1]; Series A: NAC 60 minutes before occlusion): 43%
infarction volume ([1]; Series B: 400 mg/kg i.v. -30 min to MCAO): 176.60 ± 69 mm3
average protection versus saline ([1]; Series B: NAC 30 minutes before occlusion): 34%
infarction volume ([1]; Series C: 400 mg/kg i.v. at reperfusion (2 min after)): 156.41 ± 27 mm3
total volume of infarction versus saline treated group ([1]; Series C: NAC after reperfusion, p=0.84): the difference was not significant
protection in comparison to saline controls ([1]; Series D: BSO treated, glutathione depleted animals, p=0.72): failed to provide significant protection
effectiveness in preventing or treating ischemia-reperfusion injuries [5]: more effective
transient decrease of mean arterial blood pressure (Long-Evans, rat, in vivo, iv): 10%
morbidity or mortality (stroke animals, intravenous 400 mg NAC in 5 min infusion): did not cause significant morbidity or mortality
